Several values for one entry are separate records, joined by “and”; a condition that tells them apart may be missing. Equal entries are not always repeated.
Key:
hCES1c [1] = target: T1, hCES1c (Homo sapiens, UniProt P23141); assay: Initial activity screening with recombinant hCES1c; conditions: 100 µM substrate, 30 min, 37 °C, 0.2 µg/µL protein, LC–ITMS; for Relative amount of hydrolysis metabolite formed, hCES1c: mean n = 2
T1 sequence (P23141 18-566 isoform P23141-3 limits assumed): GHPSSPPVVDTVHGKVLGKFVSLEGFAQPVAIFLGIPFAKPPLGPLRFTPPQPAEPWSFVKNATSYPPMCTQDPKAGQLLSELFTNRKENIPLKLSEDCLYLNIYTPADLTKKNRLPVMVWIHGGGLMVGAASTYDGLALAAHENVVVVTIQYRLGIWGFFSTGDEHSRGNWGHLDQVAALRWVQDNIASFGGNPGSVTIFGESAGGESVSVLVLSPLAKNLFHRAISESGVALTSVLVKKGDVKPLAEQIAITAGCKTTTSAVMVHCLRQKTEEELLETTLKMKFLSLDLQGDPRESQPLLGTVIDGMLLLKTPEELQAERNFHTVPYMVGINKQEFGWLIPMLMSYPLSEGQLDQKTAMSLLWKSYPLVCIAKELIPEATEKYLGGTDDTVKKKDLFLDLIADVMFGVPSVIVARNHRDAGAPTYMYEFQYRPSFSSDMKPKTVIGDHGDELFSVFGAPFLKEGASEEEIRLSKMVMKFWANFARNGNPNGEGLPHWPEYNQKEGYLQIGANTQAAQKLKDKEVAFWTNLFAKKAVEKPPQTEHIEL

hCES1b [2] = target: T2, hCES1b (Homo sapiens, UniProt P23141); assay: Initial activity screening with recombinant hCES1b; conditions: 100 µM substrate, 30 min, 37 °C, 0.2 µg/µL protein, LC–ITMS; for Relative amount of hydrolysis metabolite formed, hCES1b: mean n = 2
T2 sequence (P23141 18-567): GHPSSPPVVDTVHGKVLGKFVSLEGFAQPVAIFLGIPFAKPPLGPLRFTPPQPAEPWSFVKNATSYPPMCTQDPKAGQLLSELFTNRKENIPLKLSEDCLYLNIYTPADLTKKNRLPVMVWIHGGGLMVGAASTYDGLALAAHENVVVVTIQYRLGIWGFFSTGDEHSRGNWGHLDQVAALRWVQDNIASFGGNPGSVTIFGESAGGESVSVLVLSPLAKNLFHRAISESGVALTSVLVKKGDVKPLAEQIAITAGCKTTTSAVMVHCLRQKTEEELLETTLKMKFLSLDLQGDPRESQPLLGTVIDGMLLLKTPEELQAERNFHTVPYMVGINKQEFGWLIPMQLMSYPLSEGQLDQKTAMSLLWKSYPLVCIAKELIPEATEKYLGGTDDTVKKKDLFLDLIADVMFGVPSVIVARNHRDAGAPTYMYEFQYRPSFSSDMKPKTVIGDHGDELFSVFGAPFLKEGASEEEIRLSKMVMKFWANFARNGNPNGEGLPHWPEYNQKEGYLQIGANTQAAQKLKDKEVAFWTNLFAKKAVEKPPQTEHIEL

hCES2 = target: T3, hCES2 (Homo sapiens, UniProt O00748); assay: Initial activity screening with recombinant hCES2; conditions: 100 µM substrate, 30 min, 37 °C, 0.2 µg/µL protein, LC–ITMS; for Relative amount of hydrolysis metabolite formed, hCES2: mean n = 2
T3 sequence (O00748 27-559): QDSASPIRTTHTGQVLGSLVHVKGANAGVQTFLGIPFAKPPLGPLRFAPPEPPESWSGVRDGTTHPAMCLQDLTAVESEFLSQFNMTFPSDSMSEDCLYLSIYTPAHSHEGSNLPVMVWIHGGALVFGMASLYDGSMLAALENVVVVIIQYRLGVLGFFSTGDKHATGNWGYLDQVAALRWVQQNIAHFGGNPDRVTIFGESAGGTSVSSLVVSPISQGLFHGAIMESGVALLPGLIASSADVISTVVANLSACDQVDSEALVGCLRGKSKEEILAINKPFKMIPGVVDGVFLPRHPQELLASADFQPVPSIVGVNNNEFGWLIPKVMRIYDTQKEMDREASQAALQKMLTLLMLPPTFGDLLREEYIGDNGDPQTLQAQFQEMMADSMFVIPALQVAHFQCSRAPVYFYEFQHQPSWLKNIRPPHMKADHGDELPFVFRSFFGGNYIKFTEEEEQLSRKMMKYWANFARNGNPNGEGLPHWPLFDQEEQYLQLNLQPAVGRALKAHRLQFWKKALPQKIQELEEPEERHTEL

[3] = Initial activity screening with pooled human liver microsomes; conditions: 100 µM substrate, 30 min, 37 °C, 2 µg/µL protein, LC–ITMS, mean n = 2
[4] = Initial activity screening with pooled human liver S9 fraction; conditions: 100 µM substrate, 30 min, 37 °C, 2 µg/µL protein, LC–ITMS, mean n = 2
hCES1c [5] = target: T1, hCES1c; assay: Enzyme kinetic studies of ester hydrolysis with hCES1c; conditions: for Clint (relative in vitro intrinsic clearance), hCES1c: Clint = Vmax/Km; for Vmax (relative), ester hydrolysis by hCES1c: ± S.D., peak area ratio metabolite/internal standard
hCES1b [6] = target: T2, hCES1b; assay: Enzyme kinetic studies of ester hydrolysis with hCES1b; conditions: for Clint (relative in vitro intrinsic clearance), hCES1b: Clint = Vmax/Km; for Vmax (relative), ester hydrolysis by hCES1b: peak area ratio metabolite/internal standard

Row | Compound | Hydrolysis of carboxamide linker, hCES1c (hCES1c [1]) | Hydrolysis of carboxamide/ester in head group, hCES1c (hCES1c [1]) | Hydrolysis of carboxamide linker, hCES1b (hCES1b [2]) | Hydrolysis of carboxamide/ester in head group, hCES1b (hCES1b [2]) | Hydrolysis of carboxamide linker, hCES2 (hCES2) | Hydrolysis of carboxamide/ester in head group, hCES2 (hCES2) | Relative amount of hydrolysis metabolite formed, pHLM [3] | Relative amount of hydrolysis metabolite formed, hCES1c (hCES1c [1]) | Relative amount of hydrolysis metabolite formed, hCES1b (hCES1b [2]) | Relative amount of hydrolysis metabolite formed, pHLS9 [4] | Clint (relative in vitro intrinsic clearance), hCES1c (hCES1c [5]) [AU/min/mg/µM] | Vmax (relative), ester hydrolysis by hCES1c (hCES1c [5]) | Relative amount of hydrolysis metabolite formed, hCES2 (hCES2) [%] | Clint (relative in vitro intrinsic clearance), hCES1b (hCES1b [6]) [AU/min/mg/µM] | Vmax (relative), ester hydrolysis by hCES1b (hCES1b [6]; ± S.D.) | Km (hCES1b [6]; read-out: Km, ester hydrolysis by hCES1b, ± S.D., Michaelis–Menten fit, conditions of Table 1) [µM]
1 | CC(C)[C@H](NC(=O)c1cc(-c2ccc(F)cc2)nn1CCCCCF)C(N)=O [3,5-AB-5F-FUPPYCA, N-[(1S)-1-(aminocarbonyl)-2-methylpropyl]-1-(5-fluoropentyl)-3-(4-fluorophenyl)-1H-pyrazole-5-carboxamide] | − | − | − | − | − | − |  |  |  |  |  |  |  |  |  | 
2 | O=C(NC12CC3CC(CC(C3)C1)C2)c1nn(CC2CCCCC2)c2ccccc12 [A-CHMINACA, 1-cyclohexylmethyl-N-tricyclo[3.3.1.13,7]dec-1-yl-1H-indazole-3-carboxamide] | − |  | − |  | − |  |  |  |  |  |  |  |  |  |  | 
3 | CC(C)[C@H](NC(=O)c1cn(CCCCCF)c2ncccc12)C(N)=O [AB-5F-P7AICA, (S)-N-(1-amino-3-methyl-1-oxobutan-2-yl)-1-(5-fluoropentyl)-1H-pyrrolo[2,3-b]pyridine-3-carboxamide] | − | − | − | − | − | − |  |  |  |  |  |  |  |  |  | 
4 | CC(C)(C)C(NC(=O)c1nn(CC2CCCCC2)c2ccccc12)C(=O)O (stereo not shown) [DMBA-CHMINACA, 2-[1-(cyclohexylmethyl)-1H-indazole-3-carboxamido]-3,3-dimethylbutanoic acid] | − |  | − |  | − |  |  |  |  |  |  |  |  |  |  | 
5 | CC(C)C(NC(=O)c1nn(CC2CCCCC2)c2ccccc12)C(=O)O (stereo not shown) [MBA-CHMINACA, 2-[1-(cyclohexylmethyl)-1H-indazole-3-carboxamido]-3-methylbutanoic acid] | − |  | − |  | − |  |  |  |  |  |  |  |  |  |  | 
6 | COC(=O)[C@@H](NC(=O)c1nn(CCCCF)c2ccccc12)C(C)(C)C [MDMB-4F-BINACA, methyl (2S)-2-[1-(4-fluorobutyl)-1H-indazole-3-carbonyl]amino-3,3-dimethylbutanoate] | − | + | − | + | − |  | 4.3% | below 1% | below 1% | around 1% |  |  |  |  |  | 
7 | C=CCCCn1nc(C(=O)N[C@H](C(=O)OC)C(C)(C)C)c2ccccc21 [MDMB-4en-PINACA, methyl (2S)-3,3-dimethyl-2-[(1-pent-4-enylindazole-3-carbonyl)amino]butanoate] | − | + | − | + | − |  | around 1% | below 1% | below 1% | around 1% |  |  |  |  |  | 
8 | COC(=O)[C@@H](NC(=O)c1cn(CCCCCF)c2ccccc12)C(C)(C)C [MDMB-5F-PICA, methyl (2S)-2-{[1-(5-fluoropentyl)-1H-indole-3-carbonyl]amino}-3,3-dimethylbutanoate] | − | − | − | − | − |  |  |  |  |  |  |  |  |  |  | 
9 | COC(=O)[C@@H](NC(=O)c1cn(Cc2ccc(F)cc2)c2ccccc12)C(C)(C)C [MDMB-FUBICA, methyl (2S)-2-({1-[(4-fluorophenyl)methyl]-1H-indole-3-carbonyl}amino)-3,3-dimethylbutanoate] | − | + | − | − | − |  | around 1% | below 1% |  | around 1% |  |  |  |  |  | 
10 | C=CCCCn1cc(C(=O)N[C@H](C(=O)OC)C(C)C)c2ccccc21 [MMB-4en-PICA, methyl (1-(pent-4-en-1-yl)-1H-indole-3-carbonyl)-L-valinate] | − | + | − | + | − | + |  | 5.7% | 1.5% | 11% | 0.04 | 7.57 AU/min/mg and 7.57 ± 0.42 AU/min/mg | 0.2 |  |  | 
11 | COC(=O)C(Cc1ccccc1)NC(=O)c1cn(CCCCCF)c2ccccc12 [MPhP-5F-PICA, methyl (1-(5-fluorpentyl)-1H-indole-3-carbonyl)-L-phenylalaninate] | − | + | − | + | − | + |  | 20% | 19% |  | 3.2 | 73.6 AU/min/mg and 73.6 ± 3.8 AU/min/mg | 2.1 | 2.0 | 182 AU/min/mg and 182 ± 13 AU/min/mg | 
12 | N-[(2S)-1-amino-3,3-dimethyl-1-oxobutan-2-yl]-1-(cyclohexylmethyl)-1H-indole-3-carboxamide [MMB-CHMICA] | − | + | − | + | − |  | 25% | 2.3% | 14% |  |  |  |  | 0.53 | 20.8 AU/min/mg and 20.8 ± 2.2 AU/min/mg | 39.3 ± 12

From article PMC9352624, “Going deeper into the toxicokinetics of synthetic cannabinoids: in vitro contribution of human carboxylesterases” (Archives of Toxicology, 2022)
